Target: T1, LGR5 (Homo sapiens, UniProt O75473)
T1 construct: purchased Promega (in-house HiBiT-GPCR construct library, NanoBRET)
T1 sequence (O75473 22-907): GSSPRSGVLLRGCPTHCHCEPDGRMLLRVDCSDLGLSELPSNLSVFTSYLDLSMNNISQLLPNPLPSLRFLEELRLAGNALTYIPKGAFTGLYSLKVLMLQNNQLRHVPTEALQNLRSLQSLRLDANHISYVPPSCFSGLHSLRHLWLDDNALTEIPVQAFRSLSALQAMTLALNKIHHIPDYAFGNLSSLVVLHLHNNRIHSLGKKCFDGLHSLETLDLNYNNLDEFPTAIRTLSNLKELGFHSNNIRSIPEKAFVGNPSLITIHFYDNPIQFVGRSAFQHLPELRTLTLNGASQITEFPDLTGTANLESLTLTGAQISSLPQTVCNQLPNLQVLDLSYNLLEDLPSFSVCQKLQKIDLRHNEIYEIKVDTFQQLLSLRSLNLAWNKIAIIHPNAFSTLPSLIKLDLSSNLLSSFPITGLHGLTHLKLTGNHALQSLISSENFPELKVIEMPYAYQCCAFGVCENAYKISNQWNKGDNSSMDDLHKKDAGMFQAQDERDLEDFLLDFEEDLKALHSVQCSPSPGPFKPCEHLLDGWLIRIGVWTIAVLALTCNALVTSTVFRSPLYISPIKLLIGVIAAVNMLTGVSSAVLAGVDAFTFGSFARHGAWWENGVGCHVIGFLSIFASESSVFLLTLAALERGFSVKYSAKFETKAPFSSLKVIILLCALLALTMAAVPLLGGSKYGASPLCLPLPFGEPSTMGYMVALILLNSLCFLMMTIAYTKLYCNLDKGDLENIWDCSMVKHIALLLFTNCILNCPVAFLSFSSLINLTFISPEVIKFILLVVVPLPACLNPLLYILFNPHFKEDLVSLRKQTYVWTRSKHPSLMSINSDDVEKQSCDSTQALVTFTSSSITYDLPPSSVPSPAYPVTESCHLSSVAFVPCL
Assay: NanoBRET screen HiBiT-LGR5 in HEK293
Type: binding
Procedure: Each tracer candidate was screened across the entire library of HiBiT-GPCR constructs using NanoBRET as the detection modality. As depicted in Figure 4A, the specificity of interactions was evaluated through decrease in BRET due to competitive displacement of a bound tracer by excess parental compound. Each tracer was analyzed for binding to each HiBiT-GPCR fusion in the absence and in the presence of competing parental compound. Briefly, HEK293 cells were transfected with HiBiT-GPCR constructs diluted into promoterless DNA to reduce expression and maximize translocation to the cell surface. Each tracer candidate was then screened at concentrations of 1 μM and 0.1 μM across cells expressing these fusions. Cells were treated for 1.5 h with tracer either alone or in the presence of 20 μM competing parental compound (i.e., control). BRET was measured upon addition of purified LgBiT and subsequent complementation with HiBiT genetically fused to a GPCR. The specificity of interactions was assessed through a decrease in BRET signal due to competitive displacement of the bound tracer. To further gauge the robustness of these interactions, the fold response over the control (i.e., BRETtracer/BRETcontrol) was calculated. We chose a 1.5-fold response, which translates to ≥7-fold signal over noise as the minimal threshold required to score an interaction as positive.
HiBiT-GPCR DNA constructs were diluted in 10 mM Tris pH 8 to a final concentration of 0.01 μg/μL, arrayed in 96-well plates and stored at −20 °C. For transfection, HEK293 cells were suspended in Opti-MEM (without phenol red) supplemented with 2% fetal bovine serum (Seradigm) and 100 units/mL penicillin–streptomycin (Gibco) at a final concentration of 220,000 cells/mL and dispensed into white 96-well plates at 90 μL/well. Subsequent transfections and screens were carried using an Agilent Bravo Automated Liquid Handling Platform. First, the 96-well HiBiT DNA arrays were diluted 25-fold in Opti-MEM (without serum or phenol red) to a final concentration of 0.0004 μg/μL and 20 μL of the diluted DNAs were transferred into new 96-well plates. Next, promoterless carrier DNA (1 μg/μL) was diluted 25-fold (0.04 μg/μL) and then dispensed into the diluted arrays at 20 μL/well. Following brief mixing, Viafect transfection reagent (Promega) diluted 16-fold into Opti-MEM was dispensed into the plates at 40 μL/well. After mixing by pipetting, plates were incubated for 10 min on the pipetting station deck. The DNA-transfection reagent complexes were then added to plates containing cells. To facilitate the screen, 10 μL of DNA-transfection reagent complexes were added in duplicates to the top 4 and bottom 4 rows, resulting in two identical 48-well arrays per plate. Plates with transfected cells were incubated for 18–20 h at 37 °C/5% CO2. A screen of each tracer across the entire library using two different concentrations requires duplicate plates of transfected cells. Depending on the number of tracers being screened, transfections can be scaled up using the same ratios. The next day, for each tracer, four 20× screening solutions in tracer dilution buffer (Promega) were prepared: two duplicates at final concentration of 20 μM and two duplicates at a final concentration of 2 μM. […] The four resulting solutions were diluted 4-fold in Opti-MEM without serum or phenol red to generate 5× solutions (5 µM and 0.5 µM tracer +/− 100 μM competing compound). To screen the library, a BioTek MultiFlo FX liquid dispenser was used to dispense 22.5 µL of tracer solution to the top 4 rows and 22.5 µL tracer + competing compound solution to the 4 bottom rows. Plates were briefly mixed on an orbital shaker and incubated for 1.5 h at room temperature. […] Plates were briefly mixed on an orbital shaker and incubated for 15 min to allow complementation.

| Structure (SMILES) | NanoBRET Fold Response (LGR5, tracer 0.1μM) | NanoBRET Fold Response (LGR5, tracer 1μM) | other results |
| --- | --- | --- | --- |
| Cc1nc2n(c(=O)c1CCN1CCC(c3noc4cc(F)ccc34)CC1)CCCC2OC(=O)NCCOCCOCCOCCOCCNC(=O)CCc1ccc2n1[B-](F)(F)[N+]1=C(c3ccc[nH]3)C=CC1=C2 (stereo not drawn) [Risperidone-2-NB590] | 1.07 | 1.18 | – |
| CCOC(=O)c1cc(C#N)c(N2CCC(C(=O)NS(=O)(=O)Cc3ccccc3/C=C/C(=O)NCCNC(=O)CCc3ccc4n3[B-](F)(F)[N+]3=C(c5ccc[nH]5)C=CC3=C4)CC2)nc1C [AZD1283-1-NB590] | – | – | NanoBRET Fold Response (LGR5, 0.1μM): 0.86; NanoBRET Fold Response (LGR5, 1μM): 0.91 |
| Cc1cc2c(s1)Nc1ccccc1N=C2N1CCN(CCCNC(=O)CCOCCOCCOCCOCCNC(=O)CCc2ccc3n2[B-](F)(F)[N+]2=C(c4ccc[nH]4)C=CC2=C3)CC1 [Olanzapine-a-2-NB590] | 0.91 | 0.81 | – |
| COc1ccccc1N1CCN(CCCCN2C(=O)c3ccc(CNC(=O)CCOCCNC(=O)c4ccc(CNC(=O)CCc5ccc6n5[B-](F)(F)[N+]5=C(c7ccc[nH]7)C=CC5=C6)cc4)cc3C2=O)CC1 [NAN-190-3-NB590] | 1.30 | 0.72 | – |
| CC(C)N(CC[C@H](c1ccccc1)c1cc(CCNC(=O)CCOCCOCCOCCOCCNC(=O)CCc2ccc3n2[B-](F)(F)[N+]2=C(c4ccc[nH]4)C=CC2=C3)ccc1O)C(C)C [Tolterodine-2-NB590] | 0.91 | 0.71 | – |
| CN(C)CCC=C1c2ccccc2CCc2ccc(C(=O)NCCNC(=O)CCOCCOCCOCCOCCNC(=O)CCc3ccc4n3[B-](F)(F)[N+]3=C(c5ccc[nH]5)C=CC3=C4)cc21 [Amitriptyline-b-2-NB590] | – | – | NanoBRET Fold Response (tracer at 0.1μM, listed as amitriptyline-b-2-NB590): 1.19; NanoBRET Fold Response (tracer at 1μM, listed as amitriptyline-b-2-NB590): 1.19 |
| O=C(CCOCCOCCOCCOCCNC(=O)CCc1ccc2n1[B-](F)(F)[N+]1=C(c3ccc[nH]3)C=CC1=C2)NCCCN1CCN(C2=Nc3ccccc3Oc3ccc(Cl)cc32)CC1 [Loxapine-a-2-NB590] | 0.94 | 0.97 | – |
| CN(C)CCC=C1c2ccccc2CCc2ccc(C(=O)NCCNC(=O)CCOCCOCCOCCOCCNC(=O)CCc3ccc4n3[B-](F)(F)[N+]3=C(c5ccc[nH]5)C=CC3=C4)cc21 [Amitriptyline-a-2-NB590] | – | – | NanoBRET Fold Response (tracer at 0.1μM): 0.91; NanoBRET Fold Response (tracer at 1μM): 1.02 |
| O=C(CCc1ccc2n1[B-](F)(F)[N+]1=C(c3ccc[nH]3)C=CC1=C2)NCCOCCOCCNC(=O)OCCOCCN1CCN(C2=Nc3ccccc3Sc3ccccc32)CC1 [Quetiapine-a-2-NB590] | 1.02 | 0.78 | – |
| COc1ccccc1N1CCN(CCCCN2C(=O)c3ccc(CNC(=O)CCOCCOCCOCCOCCNC(=O)CCc4ccc5n4[B-](F)(F)[N+]4=C(c6ccc[nH]6)C=CC4=C5)cc3C2=O)CC1 [NAN-190-2-NB590] | 1.22 | 0.83 | – |
| CN1CCN(C2=Nc3cc(Cl)ccc3N(CC(=O)NCCOCCOCCOCCOCCNC(=O)CCc3ccc4n3[B-](F)(F)[N+]3=C(c5ccc[nH]5)C=CC3=C4)c3ccccc32)CC1 [Clozapine-c-2-NB590] | – | – | NanoBRET Fold Response (LGR5, 1μM tracer): 0.83 |
| COc1ccc2[nH]c(-c3ccc(CNC(=O)CCOCCOCCOCCOCCNC(=O)CCc4ccc5n4[B-](F)(F)[N+]4=C(c6ccc[nH]6)C=CC4=C5)cc3)c(CCNC(C)=O)c2n1 [AzomelatoninICO9-2-NB590] | – | – | NanoBRET Fold Response (0.1μM tracer): 1.35; NanoBRET Fold Response (1μM tracer): 0.94 |
| O=C(CCOCCOCCOCCOCCNC(=O)CCc1ccc2n1[B-](F)(F)[N+]1=C(c3ccc[nH]3)C=CC1=C2)NCCCN1CCN(C2=Nc3cc(Cl)ccc3Nc3ccccc32)CC1 [Clozapine-a-2-NB590] | – | – | NanoBRET Fold Response (LGR5, 0.1μM tracer): 0.94; NanoBRET Fold Response (LGR5, 1μM tracer): 0.79 |
| CCCn1c(=O)c2[nH]c(-c3ccc(OCC(=O)NCCNC(=O)CCOCCNC(=O)c4ccc(CNC(=O)CCc5ccc6n5[B-](F)(F)[N+]5=C(c7ccc[nH]7)C=CC5=C6)cc4)cc3)nc2n(CCC)c1=O [XAC-3-NB590] | 0.95 | 0.89 | – |
| O=C(CCc1ccc2n1[B-](F)(F)[N+]1=C(c3ccc[nH]3)C=CC1=C2)NCc1ccc(C(=O)NCCOCCOCCNCC(O)COc2cccc3ccccc23)cc1 (stereo not drawn) [Propranolol-3-NB590] | – | – | NanoBRET Fold Response (LGR5, 0.1μM): 1.10; NanoBRET Fold Response (LGR5, 1μM): 0.93 |
| O=C(CCc1ccc2n1[B-](F)(F)[N+]1=C(c3ccc[nH]3)C=CC1=C2)NCc1ccc(C(=O)NCCOCCC(=O)N[C@@H]2CC[C@@]3(O)[C@H]4Cc5ccc(O)c6c5[C@@]3(CCN4CC3CC3)[C@H]2O6)cc1 [Naltrexone-3-NB590] | 0.41 | 1.33 | – |
| CN(CCC=C1c2ccccc2CCc2ccccc21)C(=O)CCOCCOCCOCCOCCNC(=O)CCc1ccc2n1[B-](F)(F)[N+]1=C(c3ccc[nH]3)C=CC1=C2 [Amitriptyline-e-2-NB590] | – | – | NanoBRET Fold Response (tracer at 1μM): 0.85 |
| N#CN=C(NCCCOc1cccc(CN2CCCCC2)c1)NCCNC(=O)CCOCCOCCOCCOCCNC(=O)CCc1ccc2n1[B-](F)(F)[N+]1=C(c3ccc[nH]3)C=CC1=C2 [Aminopotentidine-2-NB590] | 0.79 | 1.15 | – |
| COc1ccc2c(n1)c(CCNC(C)=O)cn2CCNC(=O)CCc1ccc2n1[B-](F)(F)[N+]1=C(c3ccc[nH]3)C=CC1=C2 [Azamelatonin-1-NB590] | – | – | NanoBRET Fold Response (0.1μM tracer): 0.96; NanoBRET Fold Response (1μM tracer): 0.96 |
| CC(C)N(CC[C@H](c1ccccc1)c1cc(CCNC(=O)c2ccc(CNC(=O)CCc3ccc4n3[B-](F)(F)[N+]3=C(c5ccc[nH]5)C=CC3=C4)cc2)ccc1O)C(C)C [Tolterodine-BZ-NB590] | 0.91 | 0.89 | – |
| CN1CCN(C2=Nc3cc(Cl)ccc3Nc3ccc(CNC(=O)CCOCCOCCOCCOCCNC(=O)CCc4ccc5n4[B-](F)(F)[N+]4=C(c6ccc[nH]6)C=CC4=C5)cc32)CC1 [Clozapine-b-2-NB590] | – | – | NanoBRET Fold Response (LGR5, 0.1μM tracer): 0.95 |
